# Biological target: human FXa (Homo sapiens, UniProt P00742)
# Assay: Human activated coagulation factor X (FXa) inhibiting effect
# Type: biochemical
# Conditions: concentration at which the FXa effect was inhibited by 50%; substrate S-2765, 37° C., absorbance at 405 nm
# Experimental: (1) Human Activated Coagulation Factor X (FXa) Inhibiting Effect
# Method: A cuvette was charged with 225 μl of 0.05 M tris buffer (pH 8.3) containing 0.145 M sodium chloride and 2 mM calcium chloride, 5 μl of a sample (test compound dissolved in dimethyl sulfoxide) and 10 μl of human FXa (0.3 unit/ml), which were reacted at 37° C. for 10 minutes and then combined with 10 μl of a substrate (3 mM, S-2765) and further reacted at 37° C. for 10 minutes. hen the reaction was terminated by adding 25 μl of 50% aqueous acetic acid, and the change in the absorbance at 405 nm was determined using a spectrophotometer to calculate the concentration at which the FXa effect was inhibited by 50% (IC50)
# human FXa, sequence (P00742 235-488 limits assumed): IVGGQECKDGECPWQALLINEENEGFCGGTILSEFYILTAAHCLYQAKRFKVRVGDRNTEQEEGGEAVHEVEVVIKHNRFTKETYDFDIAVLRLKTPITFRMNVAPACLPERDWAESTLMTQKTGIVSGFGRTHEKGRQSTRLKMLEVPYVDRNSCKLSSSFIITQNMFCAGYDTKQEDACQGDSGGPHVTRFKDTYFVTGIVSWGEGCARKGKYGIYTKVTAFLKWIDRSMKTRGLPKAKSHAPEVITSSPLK
# human FXa, sequence (P00742 41-179 partner limits assumed): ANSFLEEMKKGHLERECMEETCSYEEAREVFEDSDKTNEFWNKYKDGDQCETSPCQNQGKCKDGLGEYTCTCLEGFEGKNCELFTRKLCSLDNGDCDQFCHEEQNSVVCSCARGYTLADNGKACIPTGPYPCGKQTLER
compound,measurement,value
O=C1CN(S(=O)(=O)C2=Cc3ccc(Cl)cc3OC2)CCN1NC1CCN(c2ccncc2)CC1 [Example 6],IC50,5.8 nM

# — patent US6723722B1, “Acylhydrazine derivatives, their production and use” (Takeda Chemical Industries, Ltd., priority 1999, dated 2004)
